These results are taken from paper PMC6008168 (Bioorganic & medicinal chemistry letters, 2017).

Data set [1] is described as follows: Permeability, PAMPA assay. Format: in vitro ADME. In general terms: The PAMPA barrier holds no transporters, so it reflects passive diffusion.
The target of another data set is T1, PPARδ (Homo sapiens, UniProt Q03181).
T1 sequence (Q03181 211-439 limits assumed): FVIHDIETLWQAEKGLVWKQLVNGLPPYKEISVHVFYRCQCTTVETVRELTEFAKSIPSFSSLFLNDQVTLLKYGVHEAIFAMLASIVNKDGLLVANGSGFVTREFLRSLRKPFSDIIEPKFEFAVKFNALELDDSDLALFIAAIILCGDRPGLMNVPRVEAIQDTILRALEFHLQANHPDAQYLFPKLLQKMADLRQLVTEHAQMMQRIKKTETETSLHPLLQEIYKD
The data set is described as follows: PPARδ transcription 2-hybrid assay. Format: cell-based. The settings on record: up to 100 μM.

A further data set deals with T2, VDR (Homo sapiens, UniProt P11473).
T2 sequence (P11473 1-427): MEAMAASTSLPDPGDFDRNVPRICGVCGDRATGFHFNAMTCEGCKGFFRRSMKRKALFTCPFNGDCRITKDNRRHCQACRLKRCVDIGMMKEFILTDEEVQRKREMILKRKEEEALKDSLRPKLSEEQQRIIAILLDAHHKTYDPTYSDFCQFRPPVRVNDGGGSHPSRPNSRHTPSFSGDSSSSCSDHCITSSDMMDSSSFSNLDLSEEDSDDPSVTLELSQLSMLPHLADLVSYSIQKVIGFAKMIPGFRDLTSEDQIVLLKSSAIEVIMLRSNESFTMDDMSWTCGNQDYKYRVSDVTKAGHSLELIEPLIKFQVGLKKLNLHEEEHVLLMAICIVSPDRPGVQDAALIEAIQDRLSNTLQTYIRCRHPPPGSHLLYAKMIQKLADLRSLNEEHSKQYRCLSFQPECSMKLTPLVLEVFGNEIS
The data set is described as follows: VDR transcription assay. The class given is cell-based. The settings on record: compared with GW0742.

Another data set is described as follows: Toxicity, Cell-TiterGlo. The class given is cell-based. The settings on record: n.o.= not observed.

The term Papp denotes a coefficient for how fast a substance crosses the barrier. On to `COc1cccc(-c2nc(C)c(COc3ccc(C(=O)O)cc3)o2)c1` [11b], for which the Papp in data set [1] is 170 ×10⁻⁶ cm/s.

In data set [1], `COC(=O)c1ccccc1OCc1oc(-c2ccccc2OC)nc1C` [4a] gave a Papp of 468 ×10⁻⁶ cm/s.

In data set [1], `COC(=O)Cc1ccc(OCc2oc(-c3cccc(OC)c3)nc2C)cc1` [7b] showed an apparent permeability (Papp) of 479 ×10⁻⁶ cm/s. The “activation of PPARδ-mediated transcription (in words)” value at PPARδ is recorded as “without activating”.

For `COC(=O)c1cccc(OCc2oc(-c3ccccc3OC)nc2C)c1` [5a], the Papp in data set [1] was 380 ×10⁻⁶ cm/s. The “activation of PPARδ-mediated transcription (in words)” value on PPARδ is given as “inability to activate”. The “increased potency in respect to GW0742 (VDR antagonism)” value on VDR amounted to 10 fold.

Compound `COC(=O)c1ccc(OCc2oc(-c3cccc(OC)c3)nc2C)cc1` [6b] gave a Papp in data set [1] of 372 ×10⁻⁶ cm/s.

In data set [1], `COC(=O)CCc1ccc(OCc2oc(-c3ccccc3OC)nc2C)cc1` [8a] gave a Papp of 457 ×10⁻⁶ cm/s.

As to `COc1ccccc1-c1nc(C)c(COc2cccc(C(=O)O)c2)o1` [10a], the Papp in data set [1] is 263 ×10⁻⁶ cm/s. Moreover, in “Toxicity, Cell-TiterGlo”, the “% Toxicity at 100 μM” value is “n.o”.

`COc1ccccc1-c1nc(C)c(COc2ccccc2C(=O)O)o1` [9a] had a Papp in data set [1] of 234 ×10⁻⁶ cm/s.

In data set [1], `COC(=O)CCc1ccc(OCc2oc(-c3cccc(OC)c3)nc2C)cc1` [8b] showed a Papp of 457 ×10⁻⁶ cm/s.

Turning to `COc1ccccc1-c1nc(C)c(COc2ccc(CC(=O)O)cc2)o1` [12a], the Papp in data set [1] was 191 ×10⁻⁶ cm/s. The “% Toxicity at 100 μM” value in the data set “Toxicity, Cell-TiterGlo” was “n.o”.

Compound `COc1cccc(-c2nc(C)c(COc3ccc(CCC(=O)O)cc3)o2)c1` [13b] had a Papp in data set [1] of 120 ×10⁻⁶ cm/s.

Compound `COc1cccc(-c2nc(C)c(COc3cccc(C(=O)O)c3)o2)c1` [10b] gave a Papp in data set [1] of 132 ×10⁻⁶ cm/s.

With `COC(=O)c1ccc(OCc2oc(-c3ccccc3OC)nc2C)cc1` [6a], the Papp in data set [1] is 447 ×10⁻⁶ cm/s.

On to `COc1cccc(-c2nc(C)c(COc3ccc(CC(=O)O)cc3)o2)c1` [12b], for which the Papp in data set [1] is 132 ×10⁻⁶ cm/s.

`COc1ccccc1-c1nc(C)c(COc2ccc(C(=O)O)cc2)o1` [11a]: the Papp in data set [1] was 214 ×10⁻⁶ cm/s. Further, the “% Toxicity at 100 μM” value in “Toxicity, Cell-TiterGlo” is reported as “n.o”.

On to `COC(=O)c1cccc(OCc2oc(-c3cccc(OC)c3)nc2C)c1` [5b], for which the Papp in data set [1] is 427 ×10⁻⁶ cm/s.

In the case of `COc1cccc(-c2nc(C)c(COc3ccccc3C(=O)O)o2)c1` [9b], the Papp in data set [1] is 234 ×10⁻⁶ cm/s.

The compound `COC(=O)Cc1ccc(OCc2oc(-c3ccccc3OC)nc2C)cc1` [7a] showed a Papp in data set [1] of 275 ×10⁻⁶ cm/s.

As for `COc1ccccc1-c1nc(C)c(COc2ccc(CCC(=O)O)cc2)o1` [13a], the Papp in data set [1] is 257 ×10⁻⁶ cm/s.

`COC(=O)c1ccccc1OCc1oc(-c2cccc(OC)c2)nc1C` [4b] showed a Papp in data set [1] of 513 ×10⁻⁶ cm/s.
